The source of these data is the Deep4Chem optical property database.

Structures are written as SMILES.

A short description of the data set: solvent given as SMILES.

`CC(C)(C)c1ccc2c(c1)sc1[n+]2[B-](F)(F)n2c(c3cccc4c(Br)ccc2c43)=C1C#N`: the absorption maximum is 539 nm (in C1CCOC1); 532 nm (in CC#N); 542 nm (in CCCCCC); 543 nm (in Cc1ccccc1); 538 nm (in ClCCl).

`CN1C(=CC2=C([O-])C(=Cc3oc4ccccc4[n+]3C)C2=C(C#N)C#N)Sc2ccccc21` displayed an absorption maximum (in ClC(Cl)Cl) of 664 nm.

For `CC1=C(/C=C/c2ccccc2)C(C)=[N+]2C1=C(c1ccccc1)c1c(C)c(/C=C/c3ccccc3)c(C)n1[B-]2(F)F`, the absorption maximum (in ClC(Cl)Cl) was 575 nm.

`C1=Cc2ccccc2C(=Cc2ccc(-c3ccc(C=C4c5ccccc5-c5ccccc54)cc3)cc2)c2ccccc21`: the absorption maximum (in C1CCOC1) is given as 357 nm.

On to `F[B-]1(F)n2c(NCc3ccccc3)ccc2C(c2c(Cl)cccc2Cl)=C2C=CC(NCc3ccccc3)=[N+]21`, for which the absorption maximum runs as follows: (in CC#N) 578 nm; (in CCCCCC) 581 nm; (in CCOC(C)=O) 580 nm; (in CO) 579 nm; (in ClCCl) 581 nm.

Consider `F[B-]1(F)n2c(cc(-c3ccccc3)c2-c2ccccc2)C(c2ccccc2)=C2C=C(c3ccccc3)C(c3ccccc3)=[N+]21`, for which the absorption maximum reads like this: (in C1CCOC1) 586 nm; (in CC#N) 576 nm; (in Cc1ccccc1) 592 nm; (in ClCCl) 584 nm.

`COc1cc2cc(/C=C/c3ccc(/C=C/c4ccc(/C=C(\C#N)C(=O)O)cc4)cc3)c(=O)oc2cc1OC`: the absorption maximum (in CC#N) turned out to be 415 nm.

With `N#Cc1ccc(C[C@H](N)C(=O)O)cc1`, the absorption maximum came out at 236.81 nm (in C1CCOC1), 233.58 nm (in CCO) and 233.33 nm (in O).

On to `O=C1c2ccccc2C(=O)c2cc(-c3ccc(N(c4ccccc4)c4ccccc4)cc3)ccc21`, for which the absorption maximum was 447 nm (in C1CCOC1); 442 nm (in CCCCCC); 446 nm (in CCOC(C)=O); 443 nm (in CCOCC); 454 nm (in Cc1ccccc1); 457 nm (in ClC(Cl)(Cl)Cl). The compound also showed an absorption maximum (in ClCCl) of 459 nm.

On to `COc1cc2c(cc1OC)C1=C[C@H](c3ccc(C)cc3)C3(C(C#N)=C(C#N)N1CC2)c1cc(Cl)ccc1-c1ccc(Cl)cc13`, for which the absorption maximum (in ClCCl) is given as 315 nm.

For the compound `c1ccc(-n2c3ccccc3c3cc([Si](c4ccccc4)(c4ccccc4)c4ccc5c(c4)c4ccccc4n5-c4ccccc4)ccc32)cc1`, where the note is “in ClCCl”, the absorption maximum stood at 342 nm.

In turn, `CN(C)c1ccc(C#Cc2cc(C#Cc3ccc(C(F)(F)F)cc3)c3ccc4c(C#Cc5ccc(N(C)C)cc5)cc(C#Cc5ccc(C(F)(F)F)cc5)c5ccc2c3c45)cc1` displayed an absorption maximum (in ClCCl) of 509 nm.

Turning to `O=C(c1ccccc1)c1cc2ccc1CCc1ccc(cc1-c1ccc(N(c3ccccc3)c3ccccc3)cc1)CC2`, the absorption maximum (in Cc1ccccc1) is given as 311 nm.

Take `CCOC(=O)C1=C(N)n2c(=O)c3ccccc3c(=O)n2C1c1ccc(C)cc1` (configuration not stated): the absorption maximum (in CS(C)=O) is reported as 365 nm.

Compound `CCCCC(CC)Cn1c2cc(C#N)ccc2c2ccc(C#Cc3ccc4ccc5ccc(C#Cc6ccc7c8ccc(C#N)cc8n(CC(CC)CCCC)c7c6)c6ccc3c4c56)cc21` (configuration not stated) gave an absorption maximum (in ClCCl) of 447 nm.

For `CCN1c2ccc(/C=N/Nc3ccccn3)cc2Sc2cc(-c3cccc4ccccc34)ccc21`, the absorption maximum is, setting by setting: (in C1CCOC1) 378 nm; (in CS(C)=O) 383 nm; (in Cc1ccccc1) 378 nm; (in ClCCl) 379 nm.

As to `c1ccc2c(c1)c1ccccc1n2-c1ccc(-c2ccc(-n3c4ccccc4c4ccccc43)nc2-n2c3ccccc3c3ccccc32)nn1`, the absorption maximum runs as follows: (in CC#N) 335 nm; (in Cc1ccccc1) 346 nm; (in ClCCl) 337 nm.

In turn, `CCCCOC(=O)/C(C#N)=C1\C(=O)C([O-])=C1C=C1N(C)c2ccccc2C1(C)C` had an absorption maximum (in CCO) of 462 nm.

Take `N#Cc1c(N2CCCCC2)cc(-c2ccccc2)c2c1-c1ccccc1C2=O`: where the note is “in C1CCOC1”, the absorption maximum is 392 nm.

Where the note is “in CN(C)C=O”, `CCOC(=O)C(Cc1ccc(O[Si]2(Oc3ccc(CC(NC(C)=O)C(=O)OCC)cc3)n3c4c5ccccc5c3/N=C3N=C(/N=c5/c6ccccc6/c(n52)=N/C2=NC(=N\4)/c4ccccc42)c2ccccc2\3)cc1)NC(C)=O` (configuration not stated) registered an absorption maximum of 681 nm.

Compound `c1ccc2c(c1)c1ccccc1n2-c1ccc(-c2ccc3nc(-c4ccc(-n5c6ccccc6c6ccccc65)cc4)nn3c2)cc1` gave an absorption maximum (in C1CCOC1) of 341 nm.

`CC(C)(C)c1ccc2c(c1)c1cc(C(C)(C)C)ccc1n2-c1ccc(C#Cc2cccc(C#Cc3ccc(-n4c5ccc(C(C)(C)C)cc5c5cc(C(C)(C)C)ccc54)cc3)c2)cc1`: the absorption maximum is, setting by setting: (in CC#N) 340 nm; (in CCCCC) 340 nm; (in CO) 338 nm; (in Cc1ccccc1) 345 nm; (in ClC(Cl)Cl) 344 nm; (in ClCCl) 345 nm.

On to `CC(C)(C)c1ccc(C#Cc2cc(C#Cc3ccc(C(C)(C)C)cc3)c(C#Cc3ccc(C(C)(C)C)cc3)c(C#Cc3ccc(C(C)(C)C)cc3)c2C#Cc2ccc(C(C)(C)C)cc2)cc1`, for which, for the setting “in ClCCl”, the absorption maximum came out at 373 nm.

For `C[Si]1(C)c2cc(C#Cc3ccccc3)ccc2C=Cc2ccc(C#Cc3ccccc3)cc21`, the absorption maximum (in ClCCl) is given as 403 nm.

With `C(/C=C/c1ccc(-n2c3ccccc3c3ccccc32)cc1)=C\c1ccncc1`, the absorption maximum was found to be 356 nm (in C1COCCO1), 350 nm (in CC#N), 360 nm (in CCCCCCC) and 353 nm (in CO).

`CC(C)[Si](C#Cc1c2cc3ccccc3cc2c(C#Cc2ccccc2)c2cc3ccccc3cc12)(C(C)C)C(C)C` gave an absorption maximum (in ClCCl) of 652 nm.

Regarding `CCC1=C(C)C2=C(C)c3c(C)c(CC)c(C)n3[B-](F)(F)[N+]2=C1C`, the absorption maximum is reported as 522.5 nm (in C1CCCCC1); 518.4 nm (in C1CCOC1); 518.6 nm (in C1COCCO1); 514.8 nm (in CC#N); 516 nm (in CC(C)=O); 518.8 nm (in CC(C)O). Further, the absorption maximum runs as follows: (in CCC(C)C) 520.4 nm; (in CCCCCC) 521.1 nm; (in CCCCCCCC) 521.2 nm; (in CCCCCCCCCCO) 521.8 nm; (in CCCCCCCCO) 521 nm; (in CCCCCCO) 520.4 nm. Moreover, the absorption maximum came to 519.4 nm (in CCCCO); 518.9 nm (in CCCO); 517.7 nm (in CCO); 516.4 nm (in CCOC(C)=O); 518.8 nm (in CCOCC); 518.2 nm (in CN1CCCC1=O). The absorption maximum came to 517.1 nm (in CN(C)C=O); 516.2 nm (in CO); 522.5 nm (in Cc1ccccc1); 520 nm (in ClCCl); 515.7 nm (in OCC(F)(F)F); 518 nm (in OCCO). Moreover, the absorption maximum was found to be 522.3 nm (in OCCOc1ccccc1) and 522.7 nm (in c1ccccc1).

With `CN(C)c1ccc(C=C/C=C/C=C/c2ccc(C#N)cc2)cc1`, the absorption maximum runs as follows: (in C1CCOC1) 420 nm; (in CC#N) 418 nm; (in CCCC#N) 422 nm; (in CCCCCC) 412 nm; (in CCCCOCCCC) 416 nm; (in CCO) 418 nm. Moreover, under “in CCOCC”, the absorption maximum was found to be 416 nm.

In turn, `C(#Cc1ncc(-c2ccccc2)o1)c1ccco1` registered an absorption maximum (in ClCCl) of 325 nm.

On to `CCCCCCCCCCCCOc1cc(C(=O)Nc2ccc(-c3ccc4c(c3)C(=O)c3ccccc3-4)cc2)cc(OCCCCCCCCCCCC)c1OCCCCCCCCCCCC`, for which the absorption maximum (in C1CCOC1) is given as 432 nm.

With `CCCc1cc2c(s1)-c1cc3c(cc1NB2c1ccccc1)-c1sc(CCC)cc1B(c1ccccc1)N3`, the absorption maximum (in ClCCl) amounted to 411 nm.

Regarding `CCOC(=O)c1c(C(=O)OC)c(-c2cc3cc(OC)ccc3oc2=O)nn1-c1ccccc1`, the absorption maximum (in ClCCl) worked out at 351 nm.

Compound `CC1=CC(C)=[N+]2C1=C(c1ccc(I)cc1)c1c(C)cc(C)n1[B-]2(F)F` had an absorption maximum (in ClC(Cl)Cl) of 504 nm.

Compound `CCCCCCn1c(=O)c2c3oc4ccccc4oc3c3c(=O)n(CCCCCC)c(=O)c3c2c1=O` gave an absorption maximum (in ClCCl) of 395 nm.

Consider `C(#Cc1cccs1)C(C#Cc1cccs1)=Cc1ccc(C=C(C#Cc2cccs2)C#Cc2cccs2)s1`, for which the absorption maximum (in ClC(Cl)Cl) is on record as 486 nm.

For the compound `COc1cccc(-c2nc3c([nH]2)C2=CC(=O)S[C@]2(C)[C@@]2(C)SC(=O)C=C32)c1OC`, the absorption maximum (in CC#N) was 397 nm.

As for `Clc1ccc(-c2cccc3ncc(-c4ccccc4)n23)cc1`, the absorption maximum (in ClCCl) amounted to 338 nm.

Consider `COc1cc(/C=C/c2nc(N3CCOCC3)c3c([n+]2[O-])CCCC3)cc(OC)c1OC`, for which the absorption maximum (in ClCCl) turned out to be 390 nm.

Take `CCCCCCc1ccc2c3c(ccc2c1)O[B-](c1ccccc1)(c1ccccc1)[N+](c1cc([N+]2=Cc4c(ccc5cc(CCCCCC)ccc45)O[B-]2(c2ccccc2)c2ccccc2)cc([N+]2=Cc4c(ccc5cc(CCCCCC)ccc45)O[B-]2(c2ccccc2)c2ccccc2)c1)=C3`: the absorption maximum runs as follows: (in C1CCOC1) 445 nm; (in CC#N) 440 nm; (in Cc1ccccc1) 453 nm; (in ClCCl) 450 nm.

In turn, `CC(C)(C)c1ccc(N(c2ccc(S(=O)(=O)c3ccc(S(=O)(=O)c4ccc(N(c5ccc(C(C)(C)C)cc5)c5ccccc5C(C)(C)C)cc4)cc3)cc2)c2ccccc2C(C)(C)C)cc1` displayed an absorption maximum (in Cc1ccccc1) of 351 nm.

`CCCCn1/c(=C/C=C/C2=[N+](C)c3ccccc3C2(C)C)c2cccc3cccc1c32` gave an absorption maximum (in CS(C)=O) of 672 nm.
